Consider 15 compounds from patent publication US20080076751A1, “Azetidinone Derivatives and Methods of Use Thereof” (priority 2006, published 2008).

One test concerns the target T1, human NPC1L1 (Homo sapiens, UniProt Q9UHC9).
T1 construct: expressed in transfected cells; host or cells: HEK-293 (geneticin selection)
T1 sequence (Q9UHC9 22-1359): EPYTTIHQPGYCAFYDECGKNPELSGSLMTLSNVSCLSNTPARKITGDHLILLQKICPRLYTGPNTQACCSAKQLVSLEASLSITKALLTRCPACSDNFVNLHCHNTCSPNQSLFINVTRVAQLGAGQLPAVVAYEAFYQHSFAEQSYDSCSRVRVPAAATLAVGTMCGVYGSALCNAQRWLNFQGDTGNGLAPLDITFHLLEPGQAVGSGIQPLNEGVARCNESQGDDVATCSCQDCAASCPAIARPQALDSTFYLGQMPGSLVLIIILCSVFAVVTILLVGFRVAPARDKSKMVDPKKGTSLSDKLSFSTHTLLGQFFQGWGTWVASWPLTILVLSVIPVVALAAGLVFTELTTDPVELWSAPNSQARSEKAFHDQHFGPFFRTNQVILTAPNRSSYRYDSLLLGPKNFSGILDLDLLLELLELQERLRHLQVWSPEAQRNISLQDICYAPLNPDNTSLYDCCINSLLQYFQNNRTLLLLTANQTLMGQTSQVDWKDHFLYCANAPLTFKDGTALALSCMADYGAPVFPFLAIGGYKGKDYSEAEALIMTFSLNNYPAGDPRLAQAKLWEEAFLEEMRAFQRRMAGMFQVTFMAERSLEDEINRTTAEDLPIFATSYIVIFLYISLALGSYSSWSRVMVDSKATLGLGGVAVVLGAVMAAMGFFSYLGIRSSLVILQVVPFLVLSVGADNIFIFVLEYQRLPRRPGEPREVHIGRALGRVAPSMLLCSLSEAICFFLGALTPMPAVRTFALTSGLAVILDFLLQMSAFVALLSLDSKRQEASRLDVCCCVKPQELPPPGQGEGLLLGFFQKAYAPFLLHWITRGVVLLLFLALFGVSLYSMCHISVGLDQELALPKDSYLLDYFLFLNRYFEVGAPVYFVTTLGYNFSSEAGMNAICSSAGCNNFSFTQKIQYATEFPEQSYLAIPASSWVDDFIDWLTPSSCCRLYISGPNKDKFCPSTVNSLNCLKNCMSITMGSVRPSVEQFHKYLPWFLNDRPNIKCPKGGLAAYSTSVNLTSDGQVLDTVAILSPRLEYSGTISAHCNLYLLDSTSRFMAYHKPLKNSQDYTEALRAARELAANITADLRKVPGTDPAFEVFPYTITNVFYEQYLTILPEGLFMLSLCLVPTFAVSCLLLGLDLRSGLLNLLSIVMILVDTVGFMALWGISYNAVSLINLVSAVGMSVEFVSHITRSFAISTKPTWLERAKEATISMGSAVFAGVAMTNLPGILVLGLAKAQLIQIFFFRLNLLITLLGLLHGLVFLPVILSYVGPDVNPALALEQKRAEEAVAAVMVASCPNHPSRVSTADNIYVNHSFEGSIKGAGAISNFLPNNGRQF
As to the kind of experiment: NPC1L1 binding assay (BODIPY-labeled glucuronidated ezetimibe competition), human. The conditions noted are these: HEK-293 cells expressing human NPC1L1, 4 hours at 37° C. Here is the method: HEK-293 cells expressing human NPC1L1 were plated into 384-well black/clear plates (BD Biosciences, Bedford Mass.) for binding experiments the following day. Cell growth media (DMEM, 10% fetal calf serum, 1 mg/mL geneticin, 100 Units/mL penicillin) was aspirated. Cell growth media ([…]) containing 250 nM BODIPY-labeled glucuronidated ezetimibe was added to each well. Cell growth media ([…]) containing the indicated concentration of compound was then added to the wells. Unlabeled glucuronidated ezetimibe ([…]) was used to determine nonspecific binding. The binding reaction was allowed to proceed for 4 hours at 37° C. Subsequently the cell growth media was aspirated and the cells washed once with PBS. The remaining fluorescent labeled glucuronidated ezetimibe bound to the cells was quantified using a FlexStation plate reader (Molecular Devices, Sunnyvale Calif.) to measure fluorescence intensity. Ki values were determined from competition binding curves (n=4 for each point) using Prism and Activity Base software.
A word on the Ki: it is the equilibrium dissociation constant of an inhibitor or competing ligand from its target. The low end stands for higher affinity, the high end for lower affinity. Regarding `O=C(NC1CCCC1)N1CCC2(CC1)C(=O)N(c1ccccc1)C2c1ccccc1` (stereo not drawn), the Ki turned out to be 31.2 µM.
On the same count and under the same terms, the same measure for `O=C(NCc1cccc(F)c1)N1CCC2(CC1)C(=O)N(c1ccccc1)C2c1ccccc1` (stereo not drawn): 26 µM.
The compound `O=C(Nc1ccccc1Cl)N1CCC2(CC1)C(=O)N(c1ccccc1)C2c1ccccc1` (stereo not drawn) registered an inhibition constant (Ki) of 8.64 µM.
Same read-out and setting: the same measure for `O=C(NCc1ccccc1Cl)N1CCC2(CC1)C(=O)N(c1ccccc1)C2c1ccccc1` (stereo not drawn): 17.6 µM.
On the same count and under the same terms, the same measure for `O=C(NC1CCCCC1)N1CCC2(CC1)C(=O)N(c1ccccc1)C2c1ccccc1` (stereo not drawn): 19.7 µM.

For another test, the target named is T2, human-SP9215 (GPR119) (Homo sapiens, UniProt Q8TDV5).
T2 construct: expressed in transfected cells
T2 sequence (Q8TDV5 1-335): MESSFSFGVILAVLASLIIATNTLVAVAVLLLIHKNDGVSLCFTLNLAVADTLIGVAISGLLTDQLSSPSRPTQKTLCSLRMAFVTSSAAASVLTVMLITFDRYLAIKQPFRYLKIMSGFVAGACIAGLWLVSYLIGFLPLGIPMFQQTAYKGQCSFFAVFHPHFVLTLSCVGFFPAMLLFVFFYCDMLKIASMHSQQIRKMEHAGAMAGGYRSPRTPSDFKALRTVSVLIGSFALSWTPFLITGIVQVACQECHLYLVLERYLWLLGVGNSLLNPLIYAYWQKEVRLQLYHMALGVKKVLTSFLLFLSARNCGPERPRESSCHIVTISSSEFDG
Put plainly: GPR119 screening assay (LANCE cAMP, HEK 293 Human clone 3). In kind it is cell-based. The conditions noted are these: HEK 293 Human clone 3, LANCE cAMP; read-out: GPR119 cAMP IC5O. As for the experimental part: • +100 mg BSA (MP Biomedicals faction V, #103703)=0.1% • +500 μL 1M HEPES (Cellgro #25-060-Cl)=5 mM • +75 μL RO-20 (Sigma B8279; 20 mM stock in DMSO stored in aliquots at −20° C.)=15 μM • (made fresh daily) B84 (N-[4-(methylsulfonyl)phenyl]-5-nitro-6-[4-(phenylthio)-1-piperidinyl]-4-pyrimidinamine, see WO 2004/065380): A 10 mM stock solution of the test compound in DMSO was prepared, aliquoted and stored at −20° C. For Totals—Dilute 1:33.3 in DMSO then 1:50 in Stimulation Buffer=6 μM in 2% DMSO (=3 μM B84 and 1% DMSO final). For Dose Response Curve -3 μL stock+7 μL DMSO+490 μL Stim Buffer=60 μM in 2% DMSO (=30 μM B84 and 1% DMSO final). (made fresh daily). Cell Line Human clone 3: HEK 293 cells stable transfected with human-SP9215 (GPR119)/pcDNA3.1 and also stable for pCRELuc, Stratagene. Cells are maintained in DMEM containing 10% FBS (Invitrogen #02-4006Dk, lot #1272302, heat inactivated), 1×MEM, 1× Pen/Strep, 0.1 mg/mL Hygromycin B, and 0.5 mg/mL G418. Cells are split 1:8 twice per week. cAMP Kit: LANCE™ cAMP 384 kit, Perkin Elmer #AD0263 Compound Dilutions • 1. Add DMSO to vials containing compounds to provide a 1 mg/mL solution. • 2. Dilute compounds to 60 μM in Stimulation buffer. Make ½ log dilutions into stimulation buffer containing 2% DMSO using the epMotion robot. 10 point dose response curve 1 nM to 30 μM. • 3. Compounds are run in quadruplicate, 2 separate dilutions for each, sets 1 and 1a. Assay Procedure • 1. The afternoon before the assay, replace the media in the flask of Human clone 3 cells with Optimem. (Gibco # 11058-021) NOTE: cells should be in culture 6-8 days. • 2. Next morning, pipet the cells gently off the flask using HBSS (at room temperature). • 3. Pellet the cells (1300 rpm, 7 minutes, room temperature) and resuspend in Stimulation Buffer at 2.5×10e6/mL (=5-8,000 cell/6 μL). Add 1:100 dilution of Alexa Fluor 647-anti cAMP antibody (provided in the kit) directly to the cell suspension. • 4. Into white 384-well plates (Matrix) add 6 μL of 2×B84, cmpds or stim buffer for nsb. They all contain 2% DMSO (=1% DMSO final). • Add 6 μL of the cell suspension to the wells. Incubate 30 minutes at room temperature. • For the std curve add 6 μL cAMP std solution diluted in Stim Buffer+2% DMSO according to kit directions (1000-3 nM). Add 6 μL of 1:100 anti-cAMP dilution in Stim Buffer to std wells. • Make Detection Mix according to kit instructions and incubate 15 minutes at room temperature. • Add 12 μL Detection Mix to all the wells.
In general terms: In TR-FRET formats the signal depends on donor and acceptor labels being close together.
Take `COC(=O)c1ccc(N2C(=O)C3(CCN(C(=O)c4ccc5c(c4)OCCCO5)CC3)C2c2ccc(Cl)cc2)cc1` (stereo not drawn): the IC50 stood at 1 µM.
Take `CC(C)OC(=O)N1CCC2(CC1)C(=O)N(C(c1ccccc1)c1ccccc1)C2c1ccccc1` (stereo not drawn): the IC50 worked out at 2 µM.
As to `N#Cc1ccc(N2C(=O)C3(CCN(C(=O)c4ccc5c(c4)OCCCO5)CC3)C2c2ccc(Cl)cc2)cc1` (stereo not drawn), the IC50 stood at 2.28 µM.
For the compound `COC(=O)c1ccc(N2C(=O)C3(CCN(C(=O)c4cc(OC)c(OC)c(OC)c4)CC3)C2c2ccc(Cl)cc2)cc1` (stereo not drawn), the IC50 turned out to be 2.72 µM.
Same read-out and setting: the same measure for `COc1cccc(N2C(=O)C3(CCN(C(=O)c4cc(OC)c(OC)c(OC)c4)CC3)C2c2ccc(Cl)cc2)c1` (stereo not drawn): 3.8 µM; for `O=C(c1ccc2c(c1)OCCCO2)N1CCC2(CC1)C(=O)N(c1ccc([N+](=O)O)cc1)C2c1ccc(Cl)cc1` (stereo not drawn): 4.18 µM.
On the same count and under the same terms, the same measure for `COc1cc(C(=O)N2CCC3(CC2)C(=O)N(c2ccc(F)cc2)C3c2ccc(Cl)cc2)cc(OC)c1OC` (stereo not drawn): 4.36 µM.
Same read-out and setting: the same measure for `COc1cc(C(=O)N2CCC3(CC2)C(=O)N(c2cccc(C(F)(F)F)c2)C3c2ccc(Cl)cc2)cc(OC)c1OC` (stereo not drawn): 4.4 µM; for `O=C(c1ccc2c(c1)OCCCO2)N1CCC2(CC1)C(=O)N(c1ccc(C(F)(F)F)cc1)C2c1ccc(Cl)cc1` (stereo not drawn): 4.46 µM.
On to `C[C@H](NC(=O)N1CCC2(CC1)C(=O)N(c1ccc(F)cc1)C2c1ccc(F)cc1)c1ccccc1` (stereo partly drawn), for which the IC50 amounted to 4.68 µM.
